Structures can show the parent of a compound that is named as a salt. Where two headings read alike, the source gives them in different places.
Columns and labels:
Type in all cases: cell-based
[1] = tested on: Target C; experiment: Gene panel canonical junction RT-qPCR assay: Target C; details: read-out: Target C (IC50, decrease in CJ mRNA levels)
Experimental: (§1) Compounds described herein were used to modulate RNA transcript abundance in cells. The expression of a target mRNA was measured by detecting the formation of an exon-exon junction in the canonical transcript (CJ). A compound mediated exon-inclusion event was detected by observing an increase in formation of a new junction with an alternative exon (AJ). Real-time qPCR assays were used to detect these splicing switches and interrogate the potency of various compounds towards different target genes. A high-throughput real time quantitative PCR (RT-qPCR) assay was developed to measure these two isoforms of the mRNA (CJ and AJ) for an exemplary gene, HTT, together with a control housekeeping gene, GAPDH or GUSB or PPIA, used for normalization. Briefly, the A673 or K562 cell line was treated with various compounds described herein (e.g., compounds of Formula (I)). After treatment, the levels of the HTT mRNA targets were determined from each sample of cell lysate by cDNA synthesis followed by qPCR.
(§2) The A673 cell line was cultured in DMEM with 10% FBS. Cells were diluted with full growth media and plated in a 96-well plate (15,000 cells in 100 ul media per well). The plate was incubated at 37° C. with 5% CO2 for 24 hours to allow cells to adhere. An 11-point 3-fold serial dilution of the compounds was made in DMSO then diluted in media in an intermediate plate. Compounds were transferred from the intermediate plate to the cell plate with the top dose at a final concentration of 10 uM in the well. Final DMSO concentration was kept at or below 0.25%. The cell plate was returned to the incubator at 37° C. with 5% CO2 for an additional 24 hours.
(§3) The K562 cell line was cultured in IMDM with 10% FBS. For K562, cells were diluted with full growth media and plated in either a 96-well plate (50,000 cells in 50 uL media per well) or a 384-well plate (8,000-40,000 cells in 45 uL media per well). An 11-point 3-fold serial dilution of the compounds were made in DMSO then diluted in media in an intermediate plate. Compound was transferred from the intermediate plate to the cell plate with the top dose at a final concentration of 10 uM in the well. Final DMSO concentration was kept at or below 0.25%. Final volume was 100 uL for 96-well plate and 50 uL for 384-well plate. The cell plate was then placed in an incubator at 37° C. with 5% CO2 for 24 hours.
(§4) The cells were then gently washed with 50 uL-100 uL cold PBS before proceeding to addition of lysis buffer. 30 uL-50 uL of room temperature lysis buffer with DNAse I (and optionally RNAsin) was added to each well. Cells were shaken/mixed thoroughly at room temperature for 5-10 minutes for lysis to take place and then 3 uL-5 uL of room temperature stop solution was added and wells were shaken/mixed again. After 2-5 minutes, the cell lysate plate was transferred to ice for RT-qPCR reaction setup. The lysates could also be frozen at −80° C. for later use.
(§5) In some cases, a direct lysis buffer was used. An appropriate volume of 3×lysis buffer (10 mM Tris, 150 mM NaCl, 1.5%-2.5% Igepal and 0.1-1 U/uL RNAsin, pH 7.4) was directly added to either K562 or A673 cells in media and mixed by pipetting 3 times. The plates were then incubated at room temperature with shaking/rocking for 20-50 minutes to allow for lysis to take place. After this time, the cell lysate plate was transferred to ice to set up for the RT-qPCR reactions. The lysates could also be frozen at −80° C. for later use.
(§6) To set up 10 uL RT-qPCR reactions, cell lysates were transferred to 384-well qPCR plates containing the master mix according to the table below. The plates were sealed, gently vortexed, and spun down before the run. The volumes were adjusted accordingly in some instances where the reaction was carried in 20 uL. The table below summarizes the components of the RT-qPCR reactions:
(§7) The RT-qPCR reaction was performed using a QuantStudio (ThermoFisher) under the following fast cycling conditions. […]

[2] = tested on: HTT mRNA; experiment: RT-qPCR splicing assay monitoring HTT canonical (CJ) and alternative (AJ) junction mRNA in A673 or K562 cells; details: 24 hours compound treatment, top dose 10 uM
Experimental: as §1
• Cells-to-CT 1-step kit: ThermoFisher A25602, Cells-to-CT lysis reagent: ThermoFisher 4391851C, TaqMan™ Fast Virus 1-Step Master Mix: ThermoFisher 4444436 • GAPDH: VIC-PL, ThermoFisher 4326317E (Assay: Hs99999905_m1)—used for K562/suspension cell lines • GUSB: VIC-PL, ThermoFisher 4326320E (Assay: Hs99999908_m1)—used for K562/suspension cell lines • PPIA: VIC-PL, ThermoFisher 4326316E (Assay: Hs99999904_m1)—used for A673/adherent cell lines
as §2, §3, §4
as §5, with “use. […]” for “use.”

[3] = tested on: HTT; experiment: Gene panel canonical junction RT-qPCR assay: HTT; details: read-out: HTT (IC50, decrease in CJ mRNA levels)
Experimental: as §1, §2, §3, §4, §5, §6, §7

[4] = decrease in CJ mRNA, read-out: HTT CJ AC50
[5] = increase in AJ mRNA, read-out: HTT AJ AC50

SMILES	IC50 [1] [nM]	AC50 [2, 4] [nM]	AC50 [2, 5] [nM]	IC50 [3] [nM]
CCOc1nc(-c2ccc(N(C)[C@@H]3C[C@H]4CC[C@@H](C3)N4)nn2)ccc1-c1cn[nH]c1 [Compound 261, (1R,3R,5S)—N-{6-[6-ethoxy-5-(1H-pyrazol-4-yl)pyridin-2-yl]pyridazin-3-yl}-N-methyl-8-azabicyclo[3.2.1]octan-3-amine]	< 100	< 100	< 100	< 100
COc1nc(-c2ccc(OC3CC(C)(C)NC(C)(C)C3)nn2)ccc1-c1cnn(C)c1 [Compound 245, 3-[6-methoxy-5-(1-methylpyrazol-4-yl)pyridin-2-yl]-6-[(2,2,6,6-tetramethylpiperidin-4-yl)oxy]pyridazine]	100 to 1000	100 to 1000	100 to 1000	< 100
COc1nc(-c2ccc(N(C)C3CC(C)(C)NC(C)(C)C3)nn2)ccc1-c1cnn(C)n1 [Compound 259]	100 to 1000	100 to 1000	1000 to 10000	100 to 1000
COc1nc(-c2ccc(N(C)[C@@H]3C[C@H]4CC[C@@H](C3)N4)nn2)cnc1-c1cn[nH]c1 [Compound 260, (1R,3R,5S)—N-{6-[6-methoxy-5-(1H-pyrazol-4-yl)pyrazin-2-yl]pyridazin-3-yl}-N-methyl-8-azabicyclo [3.2.1] octan-3-amine hydrochloride]	< 100	100 to 1000	100 to 1000	< 100
COc1nc(-c2ccc(N(C)[C@@H]3C[C@H]4CC[C@@H](C3)N4)nn2)ccc1-c1cnn(C)c1 [Compound 287, (1R,3s,5S)-N-(6-(6-methoxy-5-(1-methyl-1H-pyrazol-4-yl)pyridin-2-yl)pyridazin-3-yl)-N-methyl-8-azabicyclo [3.2.1] octan-3-amine]	< 100	< 100	100 to 1000	< 100
COc1nc(-c2ccc(N(C)C3C[C@H]4CC[C@@H](C3)N4)nn2)ccc1-c1cnn(C)n1 (some centres unmarked) [Compound 269, N-{6-[6-methoxy-5-(2-methyl-1,2,3-triazol-4-yl)pyridin-2-yl]pyridazin-3-yl}-N-methyl-8-azabicyclo[3.2.1]octan-3-amine]	100 to 1000	100 to 1000	100 to 1000	< 100
COc1nc(-c2ccc(N(C)C3CC(C)(C)NC(C)(C)C3)nn2)ccc1-n1cccn1 [Compound 272, 6-[6-methoxy-5-(pyrazol-1-yl)pyridin-2-yl]-N-methyl-N-(2,2,6,6-tetramethylpiperidin-4-yl) pyridazin-3-amine]	1000 to 10000	100 to 1000	100 to 1000	1000 to 10000
CN(c1ccc(-c2ccc(-c3cn[nH]c3)c(Cl)n2)nn1)[C@@H]1C[C@H]2CC[C@@H](C1)N2 [Compound 250, (exo)-N-{6-[6-chloro-5-(1H-pyrazol-4-yl)pyridin-2-yl]pyridazin-3-yl}-N-methyl-8-azabicyclo[3.2.1]octan-3-amine]	100 to 1000	< 100	< 100	< 100
COc1nc(-c2ccc(NC3CCNCC3)nn2)ccc1-c1cnn(C)n1 [Compound 270, 6-[6-methoxy-5-(2-methyl-1,2,3-triazol-4-yl)pyridin-2-yl]-N-(piperidin-4-yl)pyridazin-3-amine]	1000 to 10000	> 10000	1000 to 10000	1000 to 10000
CN(c1ccc(-c2ccc(-c3cn[nH]c3)c(F)n2)nn1)[C@@H]1C[C@H]2CC[C@@H](C1)N2 [Compound 249, (1R,3R,5S)—N-{6-[6-fluoro-5-(1H-pyrazol-4-yl)pyridin-2-yl]pyridazin-3-yl}-N-methyl-8-azabicyclo[3.2.1]octan-3-amine hydrochloride]	< 100	< 100	< 100	< 100
COc1cc(-c2ccc(N(C)[C@@H]3C[C@H]4CC[C@@H](C3)N4)nn2)ncc1-c1cn[nH]c1 [Compound 248]	> 10000	> 10000	> 10000	> 10000
COc1nc(-c2ccc(NC3CCNCC3)nn2)ccc1-n1cccn1 [Compound 288, 6-[6-methoxy-5-(pyrazol-1-yl)pyridin-2-yl]-N-(piperidin-4-yl) pyridazin-3-amine]	> 10000	> 10000	> 10000	> 10000
CN(c1ccc(-c2ccc(-c3cn[nH]c3)c(=O)[nH]2)nn1)[C@@H]1C[C@H]2CC[C@@H](C1)N2 [Compound 129, 6-[6-[(1R,3S,5S)-8-azabicyclo[3.2.1]octan-3-yl(methyl)amino]pyridazin-3-yl]-3-(1H-pyrazol-4-yl)-1H-pyridin-2-one]		1000 to 10000	1000 to 10000	
COc1nc(-c2ccc(N(C)[C@H]3CCN[C@@H](C)C3)nn2)ccc1-n1cccn1 [Compound 135, 6-[6-methoxy-5-(pyrazol-1-yl)pyridin-2-yl]-N-methyl-N-[(2S,4S)-2-methylpiperidin-4-yl]pyridazin-3-amine]	< 100	> 10000	> 10000	> 10000
C[C@@H]1C[C@H](N(C)c2ccc(-c3ccc(-c4cn[nH]c4)c(=O)[nH]3)nn2)CCN1 [Compound 126, 6-(6-[methyl[(2R,4R)-2-methylpiperidin-4-yl]amino]pyridazin-3-yl)-3-(1H-pyrazol-4-yl)-1H-pyridin-2-one]		> 10000	> 10000	
CC(C)Oc1nc(-c2ccc(N(C)[C@@H]3C[C@H]4CC[C@@H](C3)N4)nn2)ccc1-c1cn[nH]c1 [Compound 284, (1R,3R,5S)—N-{6-[6-isopropoxy-5-(1H-pyrazol-4-yl)pyridin-2-yl]pyridazin-3-yl}-N-methyl-8-azabicyclo[3.2.1]octan-3-amine]	100 to 1000	< 100	1000 to 10000	< 100
COc1nc(-c2ccc(N(C)C3CC(C)(C)NC(C)(C)C3)nn2)ccc1-c1cn[nH]c1 [Compound 246, 6-[6-methoxy-5-(1H-pyrazol-4-yl)pyridin-2-yl]-N-methyl-N-(2,2,6,6-tetramethylpiperidin-4-yl)pyridazin-3-amine]	100 to 1000	< 100	100 to 1000	< 100
CN(c1ccc(-c2ccc(-c3cn[nH]c3)c(C(F)(F)F)n2)nn1)[C@@H]1C[C@H]2CC[C@@H](C1)N2 [Compound 236]	> 10000	> 10000	> 10000	> 10000

From patent US20230365526A1, “PYRIDAZINE DERIVATIVES FOR MODULATING NUCLEIC ACID SPLICING” (REMIX THERAPEUTICS INC., priority 2020, published 2023)
